Data taken from patent publication US5116855A, “Rhodanine derivatives and pharmaceutical compositions” (Nisshin Flour Milling Co., Ltd., priority 1989, dated 1992).

Biological target: T1, aldose reductase (Rattus norvegicus, UniProt P07943)
T1 construct: the lenses were excised and homogenized in cold distilled water; from tissue; host or cells: lens of male SD rats, homogenate supernatant (crude enzyme)
Assay: Inhibitory activity against aldose reductase (crude enzyme from rat lenses, NADPH oxidation at 340 nm, D,L-glyceraldehyde substrate)
Format: biochemical
Conditions: aldose reductase from SD rat lenses, pH 6.2, 30° C.; for inhibition at 10 µM: pH 6.2, 10^-5 M; for inhibition at 10 µM / inhibition at 1 µM: read-out: Percentage of inhibition (%); for inhibition at 1 µM: pH 6.2, 10^-6 M
Procedure: The compounds of the present invention were evaluated for the inhibitory activity against aldose reductase according to the following assay procedure.
Enzyme activity was assayed according to the modification [Biochemical Pharmacology, 25, 2505 (1976)] of the method described in J. Biol. Chem., 240, 877-882 (1965).
SD strain male rats were sacrificed by decapitation, the lenses were excised and homogenized in cold distilled water. The homogenate was then centrifuged and the supernatant was used as the crude aldose reductase solution.
Separately, a 0.1 M sodium phosphate buffer (pH 6.2) containing 0.4 M ammonium sulfate was prepared at 30° C. In this buffer were dissolved the present compound, the crude aldose reductase solution and nicotinamide-adenine dinucleotide phosphate, reduced form (NADPH). The mixture was preincubated at 30° C. for 3 minutes and the reaction was initiated by addition of D,L-glyceraldehyde. In this case, the concentration of the present compound dissolved was 10^-5 M and 10^-6 M, respectively. The total amount of the assay mixture was 1.0 ml, containing 0.16 mM of NADPH, 10 mM of D,L-glyceraldehyde and 0.010-0.016 units of aldose reductase.
The inhibitory activity of the present compounds against aldose reductase was measured using each 1.0 ml of the reaction mixture containing the present compound in the above concentration. In this measurement, the rate of NADPH oxidation was followed by recording the decrease in absorbance at 340 nm. The inhibitory activity of the present compounds against aldose reductase as measured was expressed in percentage of inhibition (%) as a relative activity based on a control value.

## CCOC(=O)COc1ccc(C=C(C)C=C2SC(=S)NC2=O)cc1OC [Example 53, Ethyl 2-methoxy-4-[2-methyl-3-(4-oxo-2-thioxo-5-thiazolinylidene)-1-propenyl]phenoxyacetate]
  inhibition at 10 µM: 71.3%
  inhibition at 1 µM: 32%

## CC(C=Cc1cc(Cl)cc(Cl)c1OCC(=O)O)=C1SC(=S)NC1=O [Example 80, 2,4-Dichloro-6-[3-(4-oxo-2-thioxo-5-thiazolinylidene)-1-butenyl]phenoxyacetic acid]
  inhibition at 10 µM: 86.6%
  inhibition at 1 µM: 43%

## CC(C=Cc1ccc(OCC(=O)O)c(OCC(=O)O)c1)=C1SC(=S)NC1=O (single isomer, unassigned) [83 Isomer A]
  inhibition at 10 µM: 82.4%
  inhibition at 1 µM: 43.4%

## COC(=O)COc1ccc(C(F)(F)F)cc1C=CC(C)=C1SC(=S)NC1=O [Example 66, Methyl 4-trifluoromethyl-2-[3-(4-oxo-2-thioxo-5-thiazolinylidene)-1-butenyl]phenoxyacetate]
  inhibition at 10 µM: 79.9%
  inhibition at 1 µM: 45.6%

## CCCCOC(=O)COc1ccc(Cl)cc1C=CC(C)=C1SC(=S)NC1=O (single isomer, unassigned) [51 Isomer A]
  inhibition at 10 µM: 51.4%

## CCCCCCC(CCc1ccc(CCC(=O)O)cc1)=C1SC(=S)NC1=O (single isomer, unassigned) [33 Isomer B]
10^-5 M
  Percentage of inhibition (%): 30.5%

## COc1ccc(OCC(=O)O)c(C=CC(C)=C2SC(=S)NC2=O)c1 [Example 88, 4-Methoxy-2-[3-(4-oxo-2-thioxo-5-thiazolinylidene)-1-butenyl]phenoxyacetic acid]
  inhibition at 10 µM: 93.3%
  inhibition at 1 µM: 79.1%

## CCOC(=O)COc1ccccc1C=CC(C)=C1SC(=S)NC1=O [Example 39, Ethyl 2-[3-(4-oxo-2-thioxo-5-thiazolinylidene)-1-butenyl]phenoxacetate]
  inhibition at 10 µM: 62.6%
  inhibition at 1 µM: 50.9%

## CCOc1cc(CCC(C)=C2SC(=S)NC2=O)ccc1OCC(=O)OC [Example 45, Methyl 2-ethoxy-4-[3-(4-oxo-2-thioxo-5-thiazolinylidene)butyl]phenoxyacetate]
  inhibition at 10 µM: 48.9%

## CCCCCCC(CCc1ccc(CCC(=O)O)cc1)=C1SC(=S)NC1=O (single isomer, unassigned) [33 Isomer A]
  inhibition at 10 µM: 42.9%

## CCOC(=O)CCC(C=Cc1ccc(C(F)(F)F)cc1)=C1SC(=S)NC1=O (single isomer, unassigned) [6 Isomer A]
  inhibition at 10 µM: 35%

## CC(C(=O)Nc1ccccc1C(=O)O)=C1SC(=S)NC1=O [Example 36, N-[2-(4-Oxo-2-thioxo-5-thiazolidinylidene)propionyl]anthranilic acid]
  inhibition at 10 µM: 94%
  inhibition at 1 µM: 80%

## COC(=O)COc1c(C=CC(C)=C2SC(=S)NC2=O)cccc1OC [Example 46, Methyl 2-methoxy-6-(3-(4-oxo-2-thioxo-5-thiazolinylidene)-1-butenyl]phenoxyacetate]
  inhibition at 10 µM: 34.3%

## 5-[α-Methyl-4-(1H-tetrazol-5-yl)cinnamylidene)-4-oxo-2-thioxothiazolidine [Example 17]
10^-5 M
  Percentage of inhibition (%): 77.6%
10^-6 M
  Percentage of inhibition (%): 35.9%

## COc1cc(C=C(C)C=C2SC(=S)NC2=O)ccc1OCC(=O)O [Example 76, 2-Methoxy-4-[2-methyl-3-(4-oxo-2-thioxo-5-thiazolinylidene)-1-propenyl]phenoxyacetic acid]
  inhibition at 10 µM: 88.5%
  inhibition at 1 µM: 58.6%

## O=C(O)CCC(C=Cc1ccco1)=C1SC(=S)NC1=O [Example 35, 6-(2-Furyl)-4-(4-oxo-2-thioxo-5-thiazolidinylidene)-5-hexenoic acid]
  inhibition at 10 µM: 72.3%

## CCOC(=O)CCC(C=Cc1cccc(O)c1)=C1SC(=S)NC1=O (single isomer, unassigned) [8 Isomer A]
  inhibition at 10 µM: 57.9%

## CCC(CCc1cccn1CCC(=O)O)=C1SC(=S)NC1=O [Example 34, 3-{2-[3-(4-Oxo-2-thioxo-5-thiazolidinylidene)pentyl]pyrrol-1-yl}propionic acid]
  inhibition at 10 µM: 80.8%
  inhibition at 1 µM: 35.5%

## CCCCOC(=O)COc1ccc(Cl)cc1C=CC(C)=C1SC(=S)NC1=O (single isomer, unassigned) [51 Isomer B]
10^-5 M
  Percentage of inhibition (%): 58.7%

## COc1ccc(C=CC(CCCC(=O)O)=C2SC(=S)NC2=O)cc1OC (single isomer, unassigned) [38 Isomer A]
  inhibition at 10 µM: 95.7%
  inhibition at 1 µM: 86.8%

## CC(C=Cc1cc(C(C)C)ccc1OCC(=O)O)=C1SC(=S)NC1=O [Example 85, 4-Isopropyl-2-[3-(4-oxo-2-thioxo-5-thiazolinylidene)-1-butenyl]phenoxyacetic acid]
  inhibition at 10 µM: 92%
  inhibition at 1 µM: 77.6%

## CCCC(CCc1ccccc1OCC(=O)O)=C1SC(=S)NC1=O (single isomer, unassigned) [27 Isomer B]
10^-5 M
  Percentage of inhibition (%): 83.8%
10^-6 M
  Percentage of inhibition (%): 45.9%

## CCCC(C=Cc1ccc(C(=O)O)cc1)=C1SC(=S)NC1=O (single isomer, unassigned) [3 Isomer A]
  inhibition at 10 µM: 77.1%
  inhibition at 1 µM: 29.7%

## COc1cccc(C=CC(C)=C2SC(=S)NC2=O)c1OCC(=O)O [Example 72, 2-Methoxy-6-[3-(4-oxo-2-thioxo-5-thiazolinylidene)-1-butenyl] phenoxyacetic acid]
  inhibition at 10 µM: 80.1%
  inhibition at 1 µM: 24.8%

## COc1cccc(CCC(C)=C2SC(=S)NC2=O)c1OCC(=O)O [Example 73, 2-Methoxy-6-(3-(4-oxo-2-thioxo-5-thiazolinylidene)butyl]phenoxyacetic acid]
  inhibition at 10 µM: 59.2%

## COc1ccc(C=CC(C)=C2SC(=S)NC2=O)cc1OCC(=O)O [Example 82, 2-Methoxy-5-[3-(4-oxo-2-thioxo-5-thiazolinylidene)-1-butenyl]phenoxyacetic acid]
  inhibition at 10 µM: 67.6%
  inhibition at 1 µM: 22.1%

## CC(C=Cc1cc(Br)ccc1OCC(=O)O)=C1SC(=S)NC1=O [Example 79, 4-Bromo-2-[3-(4-oxo-2-thioxo-5-thiazolinylidene)-1-butenyl]phenoxyacetic acid]
  inhibition at 10 µM: 95.8%
  inhibition at 1 µM: 86.1%

## CCCCCCC(C=Cc1ccc(C(=O)O)cc1)=C1SC(=S)NC1=O (single isomer, unassigned) [26 Isomer B]
10^-5 M
  Percentage of inhibition (%): 52.1%

## CCOC(=O)COc1ccc(C=CC(C)=C2SC(=S)N(C)C2=O)cc1OC (single isomer, unassigned) [55 Isomer A]
  inhibition at 10 µM: 38.1%
  inhibition at 1 µM: 23.8%

## CC(C=Cc1cc(Cl)ccc1OCC(=O)OCc1ccccc1)=C1SC(=S)NC1=O [Example 50, Benzyl 4-chloro-2-[3-(4-oxo-2-thioxo-5-thiazolinylidene)-1-butenyl]phenoxyacetate]
  inhibition at 10 µM: 48%

## CC(=Cc1ccccc1OCC(=O)O)C=C1SC(=S)NC1=O [Example 68, 2-[2-Methyl-3-(4-oxo-2-thioxo-5-thiazolinylidene)-1-propenyl]phenoxyacetic acid]
  inhibition at 10 µM: 93.7%
  inhibition at 1 µM: 82.4%

## COC(=O)c1ccccc1NC(=O)CCCC(C)=C1SC(=S)NC1=O [Example 19, Methyl N-[5-(4-oxo-2-thioxo-5-thiazolidinylidene)hexanoyl]anthranilate]
  inhibition at 10 µM: 34.6%

## CC(C=Cc1cc(Cl)ccc1OCC(=O)O)=C1SC(=S)NC1=O [Example 75, 4-Chloro-2-[3-(4-oxo-2-thioxo-5-thiazolinylidene)-1-butenyl]phenoxyacetic acid]
  inhibition at 10 µM: 95.3%
  inhibition at 1 µM: 87.6%
